By pIC50 is commonly meant −log10 of the IC50, conventionally taken in molar units.

pIC50: −log10 of the molar value. Where a name gives a salt, the structure may show the parent alone.

We go through 24 compounds from patent US5328909A, “Cyclopropenone derivatives” (Mitsubishi Kasei Corporation, priority 1991, dated 1994).

One experiment addresses T1, m-calpain (Rattus norvegicus, UniProt Q07009).
T1 construct: m-calpain was purified from rat brain; from tissue; host or cells: rat brain
T1 sequence (Q07009 20-700 limits assumed): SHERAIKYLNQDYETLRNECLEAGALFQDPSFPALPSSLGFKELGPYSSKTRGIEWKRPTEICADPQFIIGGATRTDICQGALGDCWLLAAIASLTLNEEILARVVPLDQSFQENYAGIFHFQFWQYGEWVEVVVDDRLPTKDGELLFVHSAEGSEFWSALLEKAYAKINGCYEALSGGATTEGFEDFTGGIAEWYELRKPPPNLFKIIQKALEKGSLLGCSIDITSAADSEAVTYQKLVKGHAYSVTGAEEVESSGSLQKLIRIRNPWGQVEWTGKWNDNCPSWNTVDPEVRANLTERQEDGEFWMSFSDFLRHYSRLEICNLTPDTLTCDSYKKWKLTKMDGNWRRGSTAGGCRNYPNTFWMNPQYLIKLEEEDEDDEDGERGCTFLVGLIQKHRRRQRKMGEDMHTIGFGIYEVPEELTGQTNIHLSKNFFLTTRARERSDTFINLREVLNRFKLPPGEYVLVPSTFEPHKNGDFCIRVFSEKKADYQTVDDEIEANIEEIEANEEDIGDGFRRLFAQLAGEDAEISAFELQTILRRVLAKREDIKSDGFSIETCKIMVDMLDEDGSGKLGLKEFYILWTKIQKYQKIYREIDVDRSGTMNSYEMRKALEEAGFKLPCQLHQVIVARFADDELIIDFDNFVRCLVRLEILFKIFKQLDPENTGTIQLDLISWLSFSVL
T1 sequence (Q64537 1-270 partner): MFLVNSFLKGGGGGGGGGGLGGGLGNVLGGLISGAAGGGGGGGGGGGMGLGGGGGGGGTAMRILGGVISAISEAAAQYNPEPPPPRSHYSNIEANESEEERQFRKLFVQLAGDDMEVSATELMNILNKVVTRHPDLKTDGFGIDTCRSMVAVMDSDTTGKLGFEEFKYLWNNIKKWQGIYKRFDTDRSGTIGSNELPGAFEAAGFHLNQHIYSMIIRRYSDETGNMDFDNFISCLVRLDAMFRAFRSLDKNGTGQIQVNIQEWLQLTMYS
As to the kind of experiment: Thiol protease inhibitory activity against m-calpain purified from rat brain. It is filed as biochemical.
Details: not given
How it is done: Inhibitory activity against papain (P-3125, Sigma) and cathepsin B (C-6286, Sigma) was assayed according to the method described in a literature [Biochemical Journal, 201, 189 (1982)]. Capthesin L was purified from rat kidney according to the method in a literature [Journal of Biochemistry, 100, 35 (1986)], and the inhibitory activity against it was assayed in the same manner as described in the above literature for cathepsin B. Further, m-calpain was purified from rat brain according to a known method [Journal of Biological Chemistry, 254, p.3210 (1984)] and the inhibitory activity against it was assayed by a method described in a literature [Journal of Biological Chemistry, 259, 12489 (1984)]. The results are showing in Tables 3 and 4. It is evident from Tables 3 and 4 that the compounds in the present invention have a potent inhibitory activity against thiol proteases such as papain, cathepsin B, cathepsin L, m-calpain or the like.
`CC(C)C[C@H](NC(=O)Oc1ccccc1)C(=O)N[C@@H](C(C)C)[C@@H](O)c1c(-c2ccccc2)c1=O` [33 (No. 102), 2-[(1S, 2S)-1-hydroxy-3-methyl-2-((S)-4-methyl-2-phenoxycarbonylamino)valerylamino]-3-phenylcyclopropenone] showed a negative logarithm of the IC50 (pIC50) of 6.08.

Still in this experiment, the particulars now being: Table 4; rat brain enzyme; read-out: Inhibitory activity against m-calpain IC50.
`CC(C)C[C@H](NC(=O)OCc1ccccc1)C(=O)N[C@@H](Cc1ccccc1)C(O)c1cc1=O` (stereo partly drawn) [9 (No. 26), 2-[(2S)-2-((S)-2-benzyloxycarbonylamino-4-methylvalerylamino)-1-hydroxy-3-phenylpropyl]cyclopropenone]: the pIC50 was 5.30.

With `CC(C)COC(=O)N[C@@H](CC(C)C)C(=O)N[C@@H](C(C)C)[C@@H](O)c1c(-c2ccccc2)c1=O` [20 (No. 72), 2-[(1S, 2S)-1-hydroxy-2-((S)-2-isobutoxycarbonylamino-4-methylvalerylamino)-3-methylbutyl]-3-phenylcyclopropenone], the pIC50 was 5.89.

For the compound `CC(C)COC(=O)N[C@@H](CC(C)C)C(=O)N[C@@H](C(C)C)[C@H](O)c1c(-c2ccccc2)c1=O` [21 (No. 72), 2-[(1R, 2S)-1-hydroxy-2-((S)-2-isobutoxycarbonylamino-4-methylvalerylamino)-3-methylbutyl]-3-phenylcyclopropenone], the pIC50 was 5.52.

For the compound `CC(C)C[C@H](NC(=O)OCc1ccccn1)C(=O)N[C@@H](C(C)C)[C@@H](O)c1c(-c2ccccc2)c1=O` [29 (No. 97), 2-[(1s, 2S)-1-hydroxy-3-methyl-2-{(S)-4-methyl-2-(2-pyridylmethoxycarbonylamino)valerylamino}butyl]-3-phenylcyclopropenone hydrochloride], the negative-log IC50 (pIC50) is 5.77.

`CC(C)C[C@H](NC(=O)OCc1ccncc1)C(=O)N[C@@H](C(C)C)[C@@H](O)c1c(-c2ccccc2)c1=O` [31 (No. 99), 2-[(1S, 2S)-1-hydroxy-3-methyl-2-{(S)-4-methyl-2-(4-pyridylmethoxycarbonylamino)valerylamino}butyl]-3-phenylcyclopropenone hydrochloride]: the negative-log IC50 (pIC50) was 5.89.

Regarding `CC(C)C[C@H](NC(=O)OCc1ccncc1)C(=O)N[C@@H](C(C)C)[C@H](O)c1c(-c2ccccc2)c1=O` [32 (No. 99), 2-[(1R, 2S)-1-hydroxy-3-methyl-2-{(S)-4-methyl-2-(4-pyridylmethoxycarbonylamino)valerylamino}butyl]-3-phenylcyclopropenone hydrochloride], the pIC50 was 5.92.

As to `CC(C)CCC(=O)N[C@@H](CC(C)C)C(=O)N[C@@H](C(C)C)[C@@H](O)c1c(-c2ccccc2)c1=O` [37 (No. 114), 2-[(1S, 2S)-1-hydroxy-2-((S)-2-isohexanoylamino-4-methylvalerylamino)-3-methylbutyl]-3-phenylcyclopropenone], the pIC50 is 5.68.

Regarding `CCCCCCCCCCCC(=O)N[C@@H](CC(C)C)C(=O)N[C@@H](C(C)C)[C@@H](O)c1c(-c2ccccc2)c1=O` [38 (No. 120), 2-[(1S, 2S)-1-hydroxy-2-((S)-2-lauroylamino-4-methylvalerylamino)^- 3-methylbutyl]-3-phenylcyclopropenone], the negative logarithm of the IC50 (pIC50) was 5.40.

On to `CC(C)C[C@H](NC(=O)CCC1CCCCC1)C(=O)N[C@@H](C(C)C)[C@@H](O)c1c(-c2ccccc2)c1=O` [39 (No. 124), 2-[(1S, 2S)-2-{(S)-2-(3-cyclohexylpropionylamino)-4-methylvalerylamino} -1-hydroxy-3-methylbutyl]-3-phenylcyclopropenone], for which the negative-log IC50 (pIC50) is 5.72.

Consider `CC(C)C[C@H](NC(=O)C1CCCCC1)C(=O)N[C@@H](C(C)C)[C@@H](O)c1c(-c2ccccc2)c1=O` [40 (No. 129), 2-[(1S, 2S)-2-((S)-2-cyclohexylcarbonylamino-4-methylvalerylamino)-1-hydroxy-3-methylbutyl]-3-phenylcyclopropenone], for which the pIC50 is 5.59.

As to `CC(C)C[C@H](NC(=O)Cc1ccccc1)C(=O)N[C@@H](C(C)C)[C@@H](O)c1c(-c2ccccc2)c1=O` [41 (No. 132), 2-[(1S, 2S)-1-hydroxy-3-methyl-2-((S)-4-methyl-2-phenylacetylaminovalerylamino)butyl]-3-phenylcyclopropenone], the pIC50 is 5.85.

For `CC(C)C[C@H](NC(=O)CCc1ccccc1)C(=O)N[C@@H](C(C)C)[C@@H](O)c1c(-c2ccccc2)c1=O` [42 (No. 133), 2-[(1S, 2S)-1-hydroxy-3-methyl-2-{(S)-4-methyl-2-(3-phenylpropionylamino)valerylamino}butyl]-3-phenylcyclopropenone], the pIC50 was 5.82.

Regarding `CC(C)C[C@H](NC(=O)CCCc1ccccc1)C(=O)N[C@@H](C(C)C)[C@@H](O)c1c(-c2ccccc2)c1=O` [43 (No. 134), 2-[(1S, 2S)-1-hydroxy-3-methyl-2-{(S)-4-methyl-2-(4-phenylbutyrylamino)valerylamino}butyl]-3-phenylcyclopropenone], the pIC50 is 5.77.

On to `CC(=O)CCC(=O)N[C@@H](CC(C)C)C(=O)N[C@@H](C(C)C)[C@@H](O)c1c(-c2ccccc2)c1=O` [44 (No. 137), 2-[(1S, 2S)-1-hydroxy-3-methyl-2-(S)-4-methyl-2-(4-oxovalerylamino)valerylamino]-3-phenylcyclopropenone], for which the negative logarithm of the IC50 (pIC50) was 5.52.

On to `CC(C)C[C@H](NC(=O)CCC(=O)c1ccccc1)C(=O)N[C@@H](C(C)C)[C@@H](O)c1c(-c2ccccc2)c1=O` [45 (No. 140), 2-[(1S, 2S)-2-{(S)-2-(3-benzoylpropionylamino)-4-methylvalerylamino}-1-hydroxy-3-methylbutyl]-3-phenylcyclopropenone], for which the pIC50 is 6.00.

Regarding `CC(C)C[C@H](NC(=O)COc1ccccc1)C(=O)N[C@@H](C(C)C)[C@@H](O)c1c(-c2ccccc2)c1=O` [48 (No. 148), 2-[(1S, 2S)-1-hydroxy-3-methyl-2-((S)-4-methyl-2-phenoxyacetylaminovalerylamino)butyl]-3-phenylcyclopropenone], the pIC50 was 6.20.

For the compound `CC(C)C[C@H](NC(=O)COc1ccccc1Cl)C(=O)N[C@@H](C(C)C)[C@@H](O)c1c(-c2ccccc2)c1=O` [50 (No. 152), 2-[(1S, 2S)-2-{(S)-2-(2-chlorophenoxyacetylamino)-4-methylvalerylamino}-1-hydroxy-3-methylbutyl]-3-phenylcyclopropenone], the pIC50 was 5.92.

Consider `CC(C)C[C@H](NC(=O)COc1ccc(Cl)cc1)C(=O)N[C@@H](C(C)C)[C@@H](O)c1c(-c2ccccc2)c1=O` [51 (No. 154), 2-[(1S, 2S)-2-{(S)-2-(4-chlorophenoxyacetylamino)-4-methylvalerylamino}-1-hydroxy-3-methylbutyl]-3-phenylcyclopropenone], for which the negative-log IC50 (pIC50) was 6.12.

For the compound `CC(C)C[C@H](NC(=O)COc1cccc(Cl)c1Cl)C(=O)N[C@@H](C(C)C)[C@@H](O)c1c(-c2ccccc2)c1=O` [52 (No. 155), 2-[(1S, 2S)-2-{(S)-2-(2,3-dichlorophenoxyacetylamino)-4-methylvalerylamino}-1-hydroxy-3-methylbutyl]-3-phenylcyclopropenone], the pIC50 was 6.13.

As to `COc1ccccc1OCC(=O)N[C@@H](CC(C)C)C(=O)N[C@@H](C(C)C)[C@@H](O)c1c(-c2ccccc2)c1=O` [53 (No. 161)], the negative-log IC50 (pIC50) was 5.64.

On to `CC(C)C[C@H](NC(=O)COCc1ccccc1)C(=O)N[C@@H](C(C)C)[C@@H](O)c1c(-c2ccccc2)c1=O` [54 (No. 166), 2-[(1S, 2S)-2-((S)-2-benzyloxyacetylamino-4-methylvalerylamino)-1-hydroxy-3-methylbutyl]-3-phenylcyclopropenone], for which the pIC50 was 5.96.

Consider `CC(C)C[C@H](NC(=O)CCOc1ccccc1)C(=O)N[C@@H](C(C)C)[C@@H](O)c1c(-c2ccccc2)c1=O` [55 (No. 167), 2-[(1S, 2S)-1-hydroxy-3-methyl-2-{(S)-4-methyl-2-(3-phenoxypropionylamino)valerylamino}butyl]-3-phenylcyclopropenone], for which the pIC50 was 6.10.

As to `CC(C)C[C@H](NC(=O)CSc1ccccc1)C(=O)N[C@@H](C(C)C)[C@@H](O)c1c(-c2ccccc2)c1=O` [56 (No. 168), 2-[(1S, 2S)-1-hydroxy-3-methyl-2-((S)-4-methyl-2-phenylthioacetylaminovalerylamino}butyl]-3-phenylcyclopropenone], the negative-log IC50 (pIC50) was 5.66.
